Patent US20160045482A1, “UREIDO-PYRAZOLE DERIVATIVES” (Respivert Limited, priority 2010, published 2016)
“Also recorded” adds a separate entry of the source. Like-named read-outs stand apart in the source and are kept apart here.

Key:
HCK = HCK (Homo sapiens, UniProt P08631); assay: Kinase enzyme activity, FRET (Z-LYTE); format: biochemical; settings: 15 μM ATP
Method: (§1) The enzyme inhibitory activity of test compounds was determined by fluorescence resonance energy transfer (FRET) using synthetic peptides labelled with both donor and acceptor fluorophores (Z-LYTE, Invitrogen). For p38 MAPK alpha (MAPK14: Invitrogen), enzyme activity was evaluated indirectly by determining the activation/phosphorylation of the down-stream molecule, MAPKAP-K2. The p38 MAPK a protein was mixed with the test compound for 2 hr at RT. MAPKAP-K2 (Invitrogen), the FRET peptide (2 μM), which is a phosphorylation target for MAPKAP-K2, and ATP (10 μM) were then added to the enzymes/compound mixture and incubated for 1 hr. Development reagent was added and the mixture incubated for 1 hr before detection by fluorescence completed the assay protocol. The enzymes HCK, c-SRC, and SYK were evaluated in a similar fashion. Each enzyme was incubated with the test compound for 2 hr at RT. […] After the development reagent was added the mixtures were incubated for 1 hr and the assay protocol was completed by detection of the fluorescence levels in a microplate reader.

p38MAPKα = target: T1, p38MAPKα (Homo sapiens, UniProt Q16539); assay: Kinase enzyme activity, FRET (Z-LYTE); format: biochemical; settings: 10 μM ATP, via MAPKAP-K2
T1 construct: purchased Invitrogen
Method: as §1

NFκB = assay: HRV-16 induced activation of NFκB in BEAS2B cells; format: cell-based, human; settings: after 2 hr, at 10 MOI
Method: (§2) The cells were then collected by scraping on ice and nuclear extracts were prepared using a nuclear protein extraction kit (ActiveMotif, […], Belgium). NFκB activity and IRF3 activity were then measured using the TransAMTM NFκB (p65) ELISA kit or the TransAMTM IRF3 ELISA kit.

IRF-3 = assay: HRV-16 induced activation of IRF-3 in BEAS2B cells; format: cell-based, human; settings: after 2 hr, at 10 MOI
Method: as §2

HRV16 [1] = assay: Assessment of HRV16 induced CPE in MRC5; format: cell-based, human rhinovirus 16; settings: Rhinovirus A
Method: The supernatants were aspirated and fresh media was added and the preparations were then incubated for 4 days. Where appropriate, cells were pre-incubated with the test compound or DMSO for 2 hr, and the compounds and DMSO added again after washout of the virus. Supernatants were aspirated and incubated with methylene blue solution (2% formaldehyde, 10% methanol and 0.175% Methylene Blue) for 2 hr at RT. After washing, 1% SDS was added to each well, and plates were shaken lightly for 1-2 hr prior to reading the absorbance at 660 nm. The percentage inhibition for each well was calculated. The IC50 value was calculated from the concentration-response curve generated from the serial dilutions of the test compound.

IL-8 [2] = assay: IL-8 release activated by human rhinovirus in BEAS2B cells; format: cell-based; settings: for IL-8 production in response to inoculation using HRV-16: epithelial cells
Method: BEAS2B cells were infected with rhinovirus at an MOI of 5 and incubated for 2 hr at 33° C. with gentle shaking to enhance adsorption. Test compounds were added 2 hr before HRV infection and 2 hr after infection when residual extracellular HRV was washed out. The cells were then washed with PBS, fresh media was added and the cells were incubated for a further 72 hr. The supernatant was collected for assay of IL-8 concentrations using the Duoset ELISA development kit (R&D Systems, Minneapolis, Minn.).

ICAM-1 = assay: ICAM1 expression activated by human rhinovirus in BEAS2B cells (cell-based ELISA); settings: for ICAM-1 expression induced by HRV16 inoculation (in words): 2 hr infection
Method: BEAS2B cells were infected with rhinovirus at an MOI of 5 and incubated for 2 hr at 33° C. with gentle shaking to enhance adsorption. Test compounds were added 2 hr before HRV infection and 2 hr after infection when residual extracellular HRV was washed out. The cells were then washed with PBS, fresh media was added and the cells were incubated for a further 72 hr. The supernatant was collected for assay of IL-8 concentrations using the Duoset ELISA development kit (R&D Systems, Minneapolis, Minn.). […] After appropriate incubation, cells were fixed with 4% formaldehyde in PBS. After quenching endogenous peroxidase by adding 0.1% sodium azide and 1% hydrogen peroxide, wells were washed with buffer (0.05% Tween in PBS: PBS-Tween). After incubation with the blocking solution (5% milk in PBS-Tween for 1 hr), cells were incubated with anti-human ICAM-1 antibody in 5% BSA PBS-Tween (1:500) overnight. Wells were then washed with PBS-Tween and incubated with the secondary antibody (HRP-conjugated anti-rabbit IgG, Dako Ltd.).

SYK = SYK (Homo sapiens, UniProt P43405); assay: Kinase enzyme activity, FRET (Z-LYTE); format: biochemical; settings: 15 μM ATP
Method: as §1

HRV16 [3] = assay: HRV-16 infection, assessment of virus load (TCID50) in MRC5 cells; format: cell-based, human rhinovirus 16; settings: HRV16 0.1 MOI, 3 days
Method: Human rhinovirus RV16 (HRV16) was obtained from the American Type Culture Collection (Manassas, Va.). Viral stocks were generated by infecting Hela cells with HRV until 80% of the cells were cytopathic. MRC5 cells (human lung fibroblast, ATCC) were infected at 0.1 MOI (multiplicity of infection of 0.1) of HRV16 and incubated for 1 hr at 33° C. with gentle shaking to stimulate adsorption. The cells were then washed with PBS, fresh media (DMEM-5% FCS) was added and the cells were incubated for a further 72 hr. Supernatant (20 μL) was collected and 10-fold serial dilutions were prepared with DMEM containing 1% FCS. All titrations were performed by infecting confluent Hela cell monolayers with serially diluted supernatant (10^−1-10^−5) and then the cytopathic effect at each dilution 3 days after infection assessed by visual inspection. The cells were then stained with Crystal Violet for confirmation. The amount of virus required to infect 50% of Hela cells was calculated in each treatment as TCID50 (50% tissue culture infectious dose, U(unit)/20 μL). Compounds were added 2 hr before HRV16 infection and 1 hr after infection when non-infected HRV was washed out.

HRV39 [4] = assay: HRV-39 viral load in air-liquid interface cultured nasal epithelial cells; format: cell-based, human rhinovirus
Method: (§3) Primary nasal epithelial cells, cultured using an air-liquid interface, were purchased from Epithelix Sarl (Geneva, Switzerland). Fresh, warmed media (200 μL) containing either the test compound at the selected concentration or vehicle (DMSO; final concentration of 0.5%) was transferred to the apical chamber, and fresh, warmed media (700 μL) containing either the test compound at the selected concentration or vehicle (DMSO; final concentration of 0.5%) were transferred to the bottom chamber. After incubation for 2 hr, the media in the upper well was removed carefully. The following day, fresh, warmed media (200 μL) containing either the test compound at the selected concentration or vehicle (DMSO; final concentration of 0.5%) was transferred to the apical chamber again, and after incubation for 2 hr, the media was removed. On the third day, cells were treated again for 2 hr, and the media was removed. […] IL-8 concentrations were determined using a Duoset ELISA development kit (R&D Systems, Minneapolis, Minn.; FIG. 3B). […] The resultant cytopathic effects (CPE) were assessed by visual inspection 5 days after infection. The amount of virus required to infect 50% of Hela cells was calculated for each treatment and is reported as log[TCID50] […]

IL-8 [5] = assay: HRV39-induced IL-8 release in air-liquid interface cultured nasal epithelial cells; format: cell-based, human
Method: as §3

HRV1B = HRV1B titres in MRC-5 cells; format: cell-based, human rhinovirus; settings: 0.1 or 10 MOI, 3 days, results not shown
HRV39 [6] = assay: HRV39 titres in MRC-5 cells; format: cell-based, human rhinovirus; settings: 0.1 or 10 MOI, 3 days, results not shown
HRV16 [7] = assay: HRV-16 infection, assessment of virus load (TCID50) in MRC5 cells; format: cell-based, human rhinovirus 16; settings: MRC5 cells, 0.1 MOI, total period of 84 hr
HRV16 mRNA = assay: Transcripts of HRV16 by PCR in MRC5 cellular extract; format: cell-based, human rhinovirus 16; settings: MRC5 cells, HRV16 0.1 MOI, 3 days
Method: (§4) The MRC5 cells infected with virus (as described above) were used for viral RNA or mRNA detection. Total RNA extraction and reverse transcription were performed using TaqMan®Fast Cells-to-CT™ Kit (Ambion Inc. Austin Tex.). The gene transcript level of HRV16 (PrimerDesign Ltd, Southampton, UK), IFN (Applied Biosystems, Warrington, UK) and GAPDH, as a house-keeping gene (PrimerDesign Ltd, Southampton, UK) were quantified by real-time PCR using commercially available primers on a StepOnePlus™ RT-PCR system (Applied Biosystems, Warrington, UK). Variations in cDNA concentrations between different samples were corrected using the housekeeping gene, whereby the GAPDH concentration in each cDNA sample was calculated, and the cDNA diluted to contain equal amounts of GAPDH. Standard curves for GAPDH were generated by performing a dilution series of the untreated control cDNA. The relative amount of gene transcript present after different treatments was calculated and normalized by dividing the calculated value for the gene of interest by that of the house-keeping gene value.

interferon β = assay: Interferon β induction (mRNA) by HRV16 in MRC-5 cells, PCR; format: cell-based, human
Method: as §4

T1 sequence (Q16539 whole entry): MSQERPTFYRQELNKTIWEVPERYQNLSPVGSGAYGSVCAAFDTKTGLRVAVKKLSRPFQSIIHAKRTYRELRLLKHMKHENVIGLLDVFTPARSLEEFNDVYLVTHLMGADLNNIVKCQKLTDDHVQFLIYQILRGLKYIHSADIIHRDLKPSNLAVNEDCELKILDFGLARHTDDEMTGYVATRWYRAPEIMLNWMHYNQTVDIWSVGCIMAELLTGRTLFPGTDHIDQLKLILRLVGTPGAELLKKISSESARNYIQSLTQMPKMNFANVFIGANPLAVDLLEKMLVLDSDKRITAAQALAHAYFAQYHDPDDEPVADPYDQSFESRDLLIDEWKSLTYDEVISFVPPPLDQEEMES
Chain of HCK (P08631 whole entry): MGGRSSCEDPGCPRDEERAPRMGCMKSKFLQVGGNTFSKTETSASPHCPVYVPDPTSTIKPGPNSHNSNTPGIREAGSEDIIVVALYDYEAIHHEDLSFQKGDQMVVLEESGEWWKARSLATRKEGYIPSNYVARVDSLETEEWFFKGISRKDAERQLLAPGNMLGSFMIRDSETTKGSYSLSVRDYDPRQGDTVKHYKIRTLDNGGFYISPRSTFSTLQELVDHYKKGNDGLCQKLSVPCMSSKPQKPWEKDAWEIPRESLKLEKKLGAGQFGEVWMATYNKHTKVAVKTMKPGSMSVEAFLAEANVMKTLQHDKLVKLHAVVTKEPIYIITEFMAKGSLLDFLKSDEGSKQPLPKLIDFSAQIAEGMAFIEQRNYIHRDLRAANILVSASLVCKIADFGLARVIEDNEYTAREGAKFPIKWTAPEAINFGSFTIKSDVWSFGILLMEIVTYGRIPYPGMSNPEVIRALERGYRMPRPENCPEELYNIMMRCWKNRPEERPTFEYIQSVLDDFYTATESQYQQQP

Row | Structure (SMILES) | IC50 (HCK) [nM] | IC50 (p38MAPKα) [nM] | NFκB activation (HRV-16 induced) (NFκB) | IRF-3 activation (HRV-16 induced) (IRF-3) | IC50 (HRV16 [1]; HRV16, MRC5, 96 h, read-out: HRV16-induced CPE IC50 Value (nM)) [nM] | IC50 (IL-8 [2]; Homo sapiens, BEAS-2B, BEAS2B cells, MOI of 5, 72 hr, read-out: HRV16-induced IL-8 IC50 Value) [nM] | IL-8 production in response to inoculation using HRV-16 (IL-8 [2]) | ICAM-1 expression induced by HRV16 inoculation (in words) (ICAM-1) | IC50 (ICAM-1; Homo sapiens, BEAS-2B, HRV16 inoculation (2 hr infection), read-out: HRV16-induced ICAM1 IC50 Value) [nM] | IC50 (SYK) [nM] | HRV-16 virus load (extracellular) (HRV16 [3]) | HRV39 extracellular virus load (HRV39 [4]) | IL-8 production in response to inoculation using HRV39 (IL-8 [5]) | HRV1B titres (HRV1B) | HRV39 titres (HRV39 [6]) | Activity versus extracellular HRV16 load, delaying treatment for 24-36 hr (HRV16 [7]) | Activity versus extracellular HRV16 load, initial treatment (HRV16 [7]) | IC50 (HRV16 [1]; 96 h, MRC5 cells, HRV16 MOI of 1, 4 days, read-out: HRV16-induced CPE IC50 Value) [nM] | HRV16 mRNA detected in cellular extracts (HRV16 mRNA) | Interferon β induction by HRV16 (interferon β)
1 | COc1ccc(-c2cc3nccn3c(Nc3ncccc3C(N)=O)n2)cc1OC [BAY 61-3606] | > 3310 | > 3310 | inhibited | tendency to inhibit |  |  |  |  |  |  |  |  |  |  |  |  |  |  |  | 
2 | COCC(=O)Nc1cc(COc2ccc(NC(=O)Nc3cc(C(C)(C)C)nn3-c3ccc(C)cc3)c3ccccc23)ccn1 [Reference Compound 1, N-[4-({4-[3-(3-tert-Butyl-1-p-tolyl-1H-pyrazol-5-yl)ureido]naphthalen-1-yloxy}methyl)pyridin-2-yl]-2-methoxyacetamide, reference compound] |  |  | some evidence of inhibition; also recorded: Modest inhibition | without effect; also recorded: No effect | 340 | 1 | marked inhibition | no effect | > 1690 | > 17800 | modest effect; also recorded: Modest inhibition | little effect | marked inhibition | little or no discernable effect | little or no discernable effect | marked decrease in activity | marked activity |  |  | 
3 | COCC(=O)Nc1cc(Oc2ccc(NC(=O)Nc3cc(C(C)(C)C)nn3-c3ccc(C)cc3)c3ccccc23)ccn1 [Reference Compound 2, N-(4-(4-(3-(3-tert-Butyl-1-p-tolyl-1H-pyrazol-5-yl)ureido)naphthalen-1-yloxy)pyridin-2-yl)-2-methoxyacetamide] |  |  | inhibited; also recorded: Marked inhibition | enhanced; also recorded: Activation |  |  | marked inhibition | remarkably potent inhibitory effect |  |  | potent inhibitor; also recorded: Marked inhibition | potent inhibitor | marked inhibition | potent inhibitor | potent inhibitor | more sustained | marked activity | 4.7 | potent inhibitor | marked increases
